# Measurements from patent US20220403001A1, “PDE5 DERIVED REGULATORY CONSTRUCTS AND METHODS OF USE IN IMMUNOTHERAPY” (Obsidian Therapeutics, Inc., priority 2018, published 2022).
# Where “and” joins values, the source holds several entries; their conditions need not be identical. Equal entries are not always repeated.
# What was measured:
# [1] = target: T1, hPDE5 mutants (Homo sapiens, UniProt O76074); assay: GFP FACS analysis of hPDE5 mutant library clones in NIH3T3 cell pools; details: for Stabilization ratio: GFP intensity 10 μM vardenafil vs DMSO
# [2] = tested on: hPDE5 mutants; assay: as above
# [3] = target: T1, hPDE5 mutants; assay: GFP MFI by FACS in HCT116 cells transduced with hPDE5 constructs; assay type: cell-based
# Method: (§1) Desirable qualities of a DD include, low expression of the SRE in the absence of ligand and ligand dependent stabilization of the SRE. Constructs were generated using DDs linked to GFP using an SG linker. […] The mean fluorescence intensity (MFI) of GFP was analyzed by FACS. […] Destabilizing mutation coefficient less than 1 are desirable.
# (§2) Mean fluorescence intensity (MFI) was measured by FACS. […] Destabilizing mutation coefficient ratios less than 1 are desirable.
# (§3) Mean fluorescence intensity (MFI) was measured by FACS. […] Destabilizing mutation co-efficient ratios less than 1 are desirable.
# (§4) Mean fluorescence intensity (MFI) was measured by FACS. […] Destabilizing mutation coefficient less than 1 are desirable.
# as §4
# (§5) Mean fluorescence intensity (MFI) of GFP was measured by FACS.
# (§6) Mean fluorescence intensity (MFI) was measured by FACS.
# (§7) The media containing the ligand was removed and fresh media without the ligand was added.
# (§8) The properties of the DDs were analyzed in the presence and absence of ligands via FACS as previously described.
# (§9) GFP fluorescence was measured by FACS.
# (§10) The properties of the DDs were analyzed via FACS both in the presence and absence of ligands.
# as §9
# [4] = tested on: hPDE5 mutants; assay: as above; assay type: cell-based, human
# Method: as §1, §2, §3, §4, §4, §5, §6, §7, §8, §9, §10, §9
# [5] = GFP intensity ligand treated vs DMSO, direct comparison of clones
substance,measurement,setting,value
"OT-001075: hPDE5 wildtype construct, catalytic domain linked to AcGFP, control",Stabilization ratio,[1]; experiment 1,1.6 and 1.5 and 1.4
same,Stabilization ratio,[1]; experiment 2,1.5
same,Stabilization ratio Sildenafil,[1]; [5],1.05
same,Stabilization ratio Tadalafil,[1]; [5],1.50
same,Stabilization ratio Vardenafil,[1]; [5],1.78
same,Mean fluorescence intensity (MFI) 10 μM VDF,"[1]; GFP, cell pools, 10 μM vardenafil 24 hr, experiment 2",45616 and 43134
same,Mean fluorescence intensity (MFI) DMSO,"[1]; GFP, cell pools, no ligand (DMSO), experiment 2",30404 and 29006
same,Fluorescence intensity Sildenafil,"[1]; median GFP fluorescence by FACS, 10 μM Sildenafil, direct comparison of clones",7082
same,Fluorescence intensity Tadalafil,"[1]; median GFP fluorescence by FACS, 10 μM Tadalafil, direct comparison of clones",10100
same,Fluorescence intensity Vardenafil,"[1]; median GFP fluorescence by FACS, 10 μM Vardenafil, direct comparison of clones",12000
same,Fluorescence intensity DMSO,"[1]; median GFP fluorescence by FACS, vehicle DMSO (no ligand), direct comparison of clones",6732
same,GFP FACS analysis (MFI),"[2]; DMSO (no ligand), SDF series, experiment 1",3140
same,GFP FACS analysis (MFI),"[2]; DMSO (no ligand), TDF series, experiment 1",9511
same,GFP FACS analysis (MFI),"[2]; DMSO (no ligand), VDF series, experiment 1",7545
same,GFP FACS analysis (MFI),"[2]; SDF 1.235 μM, experiment 1",5740
same,Percent stabilization effect,"[2]; SDF 1.235 μM, experiment 1",66.0%
same,GFP FACS analysis (MFI),"[2]; SDF 3.704 μM, experiment 1",6480
same,Percent stabilization effect,"[2]; SDF 3.704 μM, experiment 1",84.7%
same,GFP FACS analysis (MFI),"[2]; SDF 11.111 μM, experiment 1",6848
same,Percent stabilization effect,"[2]; SDF 11.111 μM, experiment 1",94.1%
same,Percent stabilization effect,"[2]; SDF 11.111 μM, experiment 2",49.7% and 88.2%
same,GFP FACS analysis (MFI),"[2]; SDF 33.333 μM, experiment 1",7025
same,Percent stabilization effect,"[2]; SDF 33.333 μM, experiment 1",98.6%
same,Percent stabilization effect,"[2]; SDF 33.333 μM, experiment 2",79.3% and 96.0%
same,Percent stabilization effect,"[2]; SDF 100 μM (set as 100%), experiment 1",100.0%
same,Percent stabilization effect,"[2]; SDF 100 μM (set as 100%), experiment 2",100.0%
same,GFP FACS analysis (MFI),"[2]; SDF 100 μM, experiment 1",7082
same,GFP FACS analysis (MFI),"[2]; SDF 100 μM, experiment 2",39638 and 65696
same,GFP FACS analysis (MFI),"[2]; TDF 1.235 μM, experiment 1",6211
same,Percent stabilization effect,"[2]; TDF 1.235 μM, experiment 1",−560.3%
same,GFP FACS analysis (MFI),"[2]; TDF 3.704 μM, experiment 1",7039
same,Percent stabilization effect,"[2]; TDF 3.704 μM, experiment 1",−419.7%
same,GFP FACS analysis (MFI),"[2]; TDF 11.111 μM, experiment 1",7388
same,Percent stabilization effect,"[2]; TDF 11.111 μM, experiment 1",−360.4%
same,GFP FACS analysis (MFI),"[2]; TDF 11.111 μM, experiment 2",89646 and 143351
same,Percent stabilization effect,"[2]; TDF 11.111 μM, experiment 2",101.2% and 136.4%
same,GFP FACS analysis (MFI),"[2]; TDF 33.333 μM, experiment 1",7688
same,Percent stabilization effect,"[2]; TDF 33.333 μM, experiment 1",−309.5%
same,GFP FACS analysis (MFI),"[2]; TDF 33.333 μM, experiment 2",97813 and 136420
same,Percent stabilization effect,"[2]; TDF 33.333 μM, experiment 2",110.9% and 123.3%
same,Percent stabilization effect,"[2]; TDF 100 μM (set as 100%), experiment 1",100.0%
same,Percent stabilization effect,"[2]; TDF 100 μM (set as 100%), experiment 2",100.0%
same,GFP FACS analysis (MFI),"[2]; TDF 100 μM, experiment 1",10100
same,GFP FACS analysis (MFI),"[2]; TDF 100 μM, experiment 2",88657 and 124011
same,GFP FACS analysis (MFI),"[2]; VDF 1.235 μM, experiment 1",7393
same,Percent stabilization effect,"[2]; VDF 1.235 μM, experiment 1",−3.4%
same,GFP FACS analysis (MFI),"[2]; VDF 1.235 μM, experiment 2",32753 and 47543
same,Percent stabilization effect,"[2]; VDF 1.235 μM, experiment 2",46.3% and 46.8%
same,GFP FACS analysis (MFI),"[2]; VDF 3.704 μM, experiment 1",7592
same,Percent stabilization effect,"[2]; VDF 3.704 μM, experiment 1",1.1%
same,GFP FACS analysis (MFI),"[2]; VDF 3.704 μM, experiment 2",36347 and 49859
same,Percent stabilization effect,"[2]; VDF 3.704 μM, experiment 2",52.0% and 52.6%
same,GFP FACS analysis (MFI),"[2]; VDF 11.111 μM, experiment 1",7964
same,Percent stabilization effect,"[2]; VDF 11.111 μM, experiment 1",9.4%
same,GFP FACS analysis (MFI),"[2]; VDF 11.111 μM, experiment 2",39279 and 50082
same,Percent stabilization effect,"[2]; VDF 11.111 μM, experiment 2",56.6% and 53.2%
same,GFP FACS analysis (MFI),"[2]; VDF 33.333 μM, experiment 1",8854
same,Percent stabilization effect,"[2]; VDF 33.333 μM, experiment 1",29.4%
same,GFP FACS analysis (MFI),"[2]; VDF 33.333 μM, experiment 2",44931 and 53578
same,Percent stabilization effect,"[2]; VDF 33.333 μM, experiment 2",65.5% and 62.0%
same,Percent stabilization effect,"[2]; VDF 100 μM (set as 100%), experiment 1",100.0%
same,Percent stabilization effect,"[2]; VDF 100 μM (set as 100%), experiment 2",100.0%
same,GFP FACS analysis (MFI),"[2]; VDF 100 μM, experiment 1",12000
same,GFP FACS analysis (MFI),"[2]; VDF 100 μM, experiment 2",66821 and 68646
same,Fold increase in MFI,"[2]; after treatment with sildenafil or vardenafil, NIH3T3",~1.5 fold
same,Sildenafil Stabilization ratio,"[3]; 10 μM, 48 h, HCT-116",1.25
same,Vardenafil Stabilization ratio,"[3]; 10 μM, 48 h, HCT-116",1.15
same,MFI Sildenafil,"[3]; GFP, 10 μM Sildenafil 48 h, HCT-116",53736
same,MFI Vardenafil,"[3]; GFP, 10 μM Vardenafil 48 h, HCT-116",49344
same,Vardenafil Stabilization ratio,"[3]; hotspot constructs, 1 μM Vardenafil",1.83
same,Sildenafil Stabilization ratio,"[3]; hotspot constructs, 10 μM Sildenafil",0.22
same,"GFP by FACS, Sildenafil 10 μM","[3]; hotspot constructs, HCT116",219
same,"GFP by FACS, Vardenafil 1 μM","[3]; hotspot constructs, HCT116",294
same,MFI DMSO,"[4]; GFP, DMSO 48 h, HCT-116",42973
same,"GFP by FACS, Sildenafil 0 μM (DMSO)","[4]; hotspot constructs, HCT116, DMSO control of Sildenafil",989
same,"GFP by FACS, Vardenafil 0 μM (DMSO)","[4]; hotspot constructs, HCT116, DMSO control of Vardenafil",161
